From patent US20060128763A1 (priority 2003, published 2006) come the findings set out here.

For data set [1] the following is noted: DSC scan, FIGS. 3 and 4. (In general: DSC measures the heat that a sample takes up or gives off during a temperature scan.)
The nature of the next data set: physchem. As to conditions: water, thermodynamic from solid. As to the method: The measurement was performed according to the procedure described in the Korean Pharmacopoeia (Korean Ministry of Health and Welfare, General principle of medical supplies, Vol. 1, Clause 29, the 7th revision) which comprises the steps of dissolving each compound in distilled water to saturation, analyzing the saturated solution with liquid chromatography, and measuring the dissolved amount of each compound based on the amount of amlodipine.

`CC1(C)[C@@H]2CC[C@@]1(CS(=O)(=O)O)C(=O)C2.CCOC(=O)C1=C(COCCN)NC(C)=C(C(=O)OC)C1c1ccccc1Cl` (centres unmarked) [Amorphous amlodipine camsylate, amorphous amlodipine camsylate]: in data set [1], the “thermodynamic stability (DSC absorption peak temperature compared with the crystalline form)” value is “sufficient thermodynamic stability”.

Turning to `CCOC(=O)C1=C(COCCN)NC(C)=C(C(=O)OC)C1c1ccccc1Cl` (centres unmarked) [Crystalline amlodipine besylate, amlodipine benzenesulfonate], the solubility (commonly how much of the substance goes into solution per volume) in “physchem” was 2350 µg/mL.
